US10335363B2, “Skin care composition and method of making the same” (The Procter & Gamble Company, priority 2015, dated 2019)

System: interleukin-18 (IL-18)
Assay: Skin sensitization potential (IL-18 production in HEK)
Assay type: cell-based, human
Conditions: fold change of IL-18 vs vehicle control, HEK lysates, 16 hours
From the text: It is possible for a material to not be cytotoxic, and yet be unsafe due to provoking an allergic reaction upon skin contact. Typically, initial exposure to an allergen sensitizes the immune system, and following exposures cause an allergic response. Recent progress in understanding the mechanisms of skin sensitization identified interleukin-18 (IL-18) production in normal human epidermal keratinocytes (HEK) as a useful biomarker for skin contact sensitization (Corsini, et al., “Use of IL-18 Production In a Human Keratinocyte Cell Line to Discriminate Contact Sensitizers from Irritants and Low Molecular Weight Respiratory Allergens.” Toxicol In Vitro. 2009 August; 23(5):789-96; Teunis, et al., “Transfer of a Two-tiered Keratinocyte Assay: IL-18 Production by NCTC2544 to Determine the Skin Sensitizing Capacity and Epidermal Equivalent Assay to Determine Sensitizer Potency.” Toxicol In Vitro. 2013 April; 27(3):1135-50). […] Thus, IL-18 production in HEK was evaluated to determine sensitization potential.
Normal human adult epidermal keratinocytes (HEK) were cultured as described above for the cytoxicity evaluation. […] The cell lysates were collected, and IL-18 was quantified using Human IL-18 ELISA Kit (Catalog #7620, produced by MBL International Co., Woburn, Mass., USA). […] Fold changes of IL-18 levels between test articles and respective vehicle controls were calculated and compared to pPD. […]

Structure (SMILES): Nc1ccc(N)cc1 [benchmark sensitizer, para-phenylenediamine]
- IL18 Maximum fold: 7.8 fold)
